The source of these data is patent US20200345805A1, “COMPOSITIONS AND METHODS USEABLE FOR TREATMENT OF DRY EYE” (priority 2019, published 2020).

Non-standard residues stand in square brackets, D forms with d. Residues, ends and D or L forms follow the SMILES beside them. Cya = N[C@@H](CS(=O)(=O)O)C(=O)O

The assay has as its system Integrin αMβ2. Nature of the assay: Expression of integrin αMβ2 in ischemic retinopathy of prematurity (ROP) mice after Risuteganib treatment. Particulars: FIG. 1. The assay is classed as in vivo. The source says: FIG. 1 is a graphic showing expression of integrin αMβ2 in ischemic retinopathy of prematurity (ROP) mice after Risuteganib treatment. Risuteganib is a small peptide that acts as an integrin inhibitor. Risuteganib targets multiple integrin subunits, including Integrin αMβ2 which is sometimes referred to as the “compliment 3 receptor” and is actively involved in inflammatory pathways and, in particular, the compliment 3 pathway. […] By causing such inhibition of Integrin αMβ2 Risuteganib may interfere with leucocyte adhesion and trans-endothelial migration, thereby resulting in decreased inflammation and improvement in the symptoms of Dry Eye.

`C[C@@H](O)[C@H](NC(=O)[C@H](CS(=O)(=O)O)NC(=O)CNC(=O)[C@H](CCCNC(=N)N)NC(=O)CN)C(=O)N1CCC[C@H]1C(=O)O` [Risuteganib, Glycyl-L-arginylglycyl-3-sulfo-L-alanyl-L-threonyl-L-proline] (H-GRG[Cya]TP-OH): the “expression of Integrin αMβ2” value is “decreases expression”.
